Converted amounts (≈) assume the structure as drawn. “And” between values parts separate entries of the source, which are not always exact repeats. Equal entries are not always repeated. Where two headings read alike, the source gives them in different places.
Tests used:
[1] = test system: Aedes aegypti Liverpool strain (insecticide susceptible, LVP) L3 larvae; test: Mosquito larval dose response assay, LVP strain; settings: read-out: Lethal Concentration (LC50) LVP Strain
[2] = test system: Aedes aegypti PRS Puerto Rican strain (synthetic pyrethroid resistant) L3 larvae; test: Mosquito larval dose response assay, PRS strain; settings: read-out: Lethal Concentration (LC50) PRS Strain
[3] = test system: Rhyzopertha dominica strain QRD1440 (resistant to OP protectants and pyrethroids); test: Grain protectant bioassay on treated wheat, resistant lesser grain borer; settings: Example 5, QRD1440, 1 ppm on wheat, replicates A, B, C
[4] = test system: M. persicae (green peach aphid) population resistant to carbamates and synthetic pyrethroids; test: Leaf dip bioassay, green peach aphid, resistant population; format: in vivo, Myzus persicae; settings: Resistant population; 0.025-2500.0 mg a.i./L; 48 and 96 hours
Procedure: (§1) Each colony was maintained separately on bok choi plants ([…]) within an exclusion cage in a constant temperature room at 24° C. with a photoperiod of 16:8 LD.
(§2) Laboratory bioassays were used to determine the efficacy of flavesone against M. persicae following the leaf dip method described in Moores et al. (1994, Pesticide Biochemistry and Physiology, 49, 114-120). A pilot study was first conducted which confirmed that the leaf dip method was appropriate to elicit a clear dose response for Flavocide 500EW against M. persicae, and to determine the appropriate rate range and timing of mortality assessments (scored at 24, 48, 72 & 96 hours) (data not shown).
(§3) Bioassays were then conducted to assess the efficacy of flavesone against a susceptible and resistant population of M. persicae, and to calculate LC values. The efficacy of a conventional insecticide, pirimicarb, was tested for comparison. Nine concentrations of flavesone ranging from 1×10^−3 to 10 times the proposed field rate (Table 15), and six concentrations of pirimicarb were serially diluted and tested, along with a water control, against the susceptible and resistant aphid populations. Leaf discs (25 mm diameter) cut from bok choi leaves were submerged for 1 second in the insecticide solutions, or in the water control, and placed adaxial side up on 10 g/L agar in 35 mm petri dishes. Six replicate leaf discs were prepared per treatment. Once leaves were air-dry, eight M. persicae nymphs were transferred to each insecticide-dipped leaf disc using a fine-haired paintbrush.
(§4) After aphid introduction, each petri dish was inverted onto a lid containing a 25 mm diameter filter paper to control humidity. All petri dishes were then placed into an incubator held at 18° C.±2° C. with a photoperiod of 16:8 LD cycle. At 48 & 96 hours, aphids were scored as alive (vibrant and moving freely), dead (not moving over a 5 second period), or incapacitated (inhibited movement).
(§5) Dose-response curves were generated by plotting percentage mortality against log concentration. Mortality data was analysed using a logistic regression model with random effects. Logistic regression is suited for the analysis of binary response data (i.e. dead/alive) with the random effect component of the model controlling for the non-independence of mortality scores within replicates. […] Population differences were tested by comparing the change in model deviance with and without the population factor (different regression intercepts for each population). Differences in regression slopes between populations were tested by comparing the change in model deviance with and without the population×dose interaction term.

[5] = test system: M. persicae (green peach aphid) insecticide-susceptible population; test: Leaf dip bioassay, green peach aphid, susceptible population; format: in vivo, Myzus persicae
Procedure: as §1, §2, §3, §4, §5

[6] = Susceptible population, 96 hours exposure

SMILES: CC1(C)[C@H](C(=O)O[C@H](C#N)c2cccc(Oc3ccccc3)c2)[C@@H]1C=C(Br)Br [Deltamethrin, deltamethrin, reference compound]
- LC50 ([1]; 24 h): 0.0119 µg/mL (≈ 0.0236 µM)
- LC50 ([1]; 48 h): 0.0049 µg/mL (≈ 0.0097 µM)
- LC50 ([1]; 72 h): 0.0037 µg/mL (≈ 0.00732 µM)
- LC50 ([2]; 24 h): 0.0522 µg/mL (≈ 0.103 µM)
- LC50 ([2]; 48 h): 0.0501 µg/mL (≈ 0.0992 µM)
- LC50 ([2]; 72 h): 0.0412 µg/mL (≈ 0.0816 µM)
- F1 Progeny count No. dead/total ([3]; further 6 weeks): 0/142 and 0/79 and 2/292
- 14 Day adult mortality No. dead (total) [3]: 1/50 (2×) and 0/50

SMILES: CC1(C)C(C=C(Cl)Cl)C1C(=O)OCc1cccc(Oc2ccccc2)c1 (stereo not drawn) [Permethrin, permethrin]
- LC50 ([1]; 24 h): 0.0219 µg/mL (≈ 0.056 µM)
- LC50 ([1]; 48 h): 0.0162 µg/mL (≈ 0.0414 µM)
- LC50 ([1]; 72 h): 0.0166 µg/mL (≈ 0.0424 µM)
- LC50 ([2]; 24 h): 0.164 µg/mL (≈ 0.42 µM)
- LC50 ([2]; 48 h): 0.15 µg/mL (≈ 0.385 µM)
- LC50 ([2]; 72 h): 0.128 µg/mL (≈ 0.327 µM)

SMILES: Cc1nc(N(C)C)nc(OC(=O)N(C)C)c1C [Pirimicarb, pirimicarb, reference compound]
- mortality observed [4]: Very low mortality
- LC50 ([5]; Myzus persicae, foliar, 96 h, read-out: LC50 (mg a.i./L)): 18.5 µg/mL (≈ 77.6 µM)
- LC90 (mg a.i./L) [5, 6]: 78.9 mg a.i./L
- LC99 (mg a.i./L) [5, 6]: 384 mg a.i./L
